ChEMBL document CHEMBL5500394, “Structure-Activity Studies of 1,2,4-Oxadiazoles for the Inhibition of the NAD+-Dependent Lysine Deacylase Sirtuin 2” (J Med Chem, 2024)
Calls of active or inactive are those of the source. No cut-off for these calls is given here.

Experiments:
[1] = target: T1, NAD-dependent protein deacetylase sirtuin-2 (Homo sapiens, UniProt Q8IXJ6); test: Inhibition of human Sirt2 (56 to 356 residues) deacetylation expressed in Escherichia coli BL21 (DE3) using ZMAL as substrate incubated for 4 hrs in presence of NAD+ by fluorescence based microplate reader assay
T1 sequence (Q8IXJ6 whole entry): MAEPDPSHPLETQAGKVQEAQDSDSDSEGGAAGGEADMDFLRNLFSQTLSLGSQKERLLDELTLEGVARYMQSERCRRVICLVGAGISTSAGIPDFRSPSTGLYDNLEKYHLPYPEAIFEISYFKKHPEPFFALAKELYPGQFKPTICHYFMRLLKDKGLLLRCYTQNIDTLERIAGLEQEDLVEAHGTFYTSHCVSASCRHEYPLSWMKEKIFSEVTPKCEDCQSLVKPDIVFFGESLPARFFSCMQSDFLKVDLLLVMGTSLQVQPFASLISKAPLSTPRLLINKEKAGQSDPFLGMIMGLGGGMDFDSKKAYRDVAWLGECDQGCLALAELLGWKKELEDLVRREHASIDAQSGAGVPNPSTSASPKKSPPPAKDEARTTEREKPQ

[2] = target: T1, NAD-dependent protein deacetylase sirtuin-2; test: Inhibition of human Sirt2 (56 to 356 residues) demyristoylation expressed in Escherichia coli BL21 (DE3) using ZMML as substrate incubated for 4 hrs in presence of NAD+ by fluorescence based microplate reader assay
[3] = target: T2, NAD-dependent protein deacetylase sirtuin-2 (Homo sapiens) (UniProt Q8IXJ6); conditions: PC-3M-luc, dose 20.0 µM, time 6.0 hrs
T2 sequence (whole entry): T1 sequence (Q8IXJ6 whole entry)

PC-3M-luc = conditions: Homo sapiens, dose 10-20 µM, time 3.0 day
[4] = target: T2, NAD-dependent protein deacetylase sirtuin-2 (Homo sapiens); test: Induction of human Sirt2 stabilization (56 to 356 residues) expressed in Escherichia coli BL21 (DE3) assessed as change in melting temperature at 25 uM in presence of NAD+ by differential scanning fluorimetry analysis
HeLa = test: Cytotoxicity against human HeLa cells at 1 to 25 uM incubated for 72 hrs by MTS assay; assay type: functional, cell-based; conditions: dose 1-25 µM
[5] = Inhibition of schistosoma mansoni Sirt2 (21 to 322 residues) deacetylation expressed in Escherichia coli BL21 (DE3) using ZMAL as substrate incubated for 1 hr in presence of NAD+ by fluorescence based microplate reader assay
[6] = target: T1, NAD-dependent protein deacetylase sirtuin-2; test: Inhibition of recombinant human C-terminal His-tagged Sirt2 (50 to 356 residues) expressed in Escherichia coli using QPKKac as substrate
[7] = target: T1, NAD-dependent protein deacetylase sirtuin-2; test: Inhibition of recombinant human C-terminal His-tagged Sirt2 (50 to 356 residues) expressed in Escherichia coli using r ETDKmyr as substrate

IC50 [1]	IC50 [2]	Compound	also measured
0.67 µM		Cc1c(F)cccc1CN1CCCC(Cc2nc(-c3ccc(NC(=O)c4ccc(Cl)s4)cc3)no2)C1 (stereo unspecified)	
0.43 µM	12.6 µM	COc1ccc(C(=O)Nc2ccc(-c3noc(CC4CCCN(Cc5cccc(F)c5C)C4)n3)cc2)cc1 (stereo unspecified)	
17.8 µM	22.2 µM	Cc1c(F)cccc1CN1CCCC(Cc2nc(-c3ccc(N)cc3)no2)C1 (stereo unspecified)	Activity [4]: inactive; Activity (HeLa): inactive; inhibition [3]: inactive; inhibition (PC-3M-luc): inactive
	11 µM	CC(=O)Nc1ccc(-c2noc(CC3CCCN(Cc4cccc(F)c4C)C3)n2)cc1 (stereo unspecified)	IC50 [5]: 14 µM
0.88 µM	22.3 µM	COc1cccc(C(=O)Nc2ccc(-c3noc(CC4CCCN(Cc5cccc(F)c5C)C4)n3)cc2)c1 (stereo unspecified)	
1.1 µM	27.7 µM	COc1ccc(CC(=O)Nc2ccc(-c3noc(CC4CCCN(Cc5cccc(F)c5C)C4)n3)cc2)cc1 (stereo unspecified)	
		CCCCCCCCCCCCNC(=S)NCCCC[C@H](NS(C)(=O)=O)C(=O)N[C@@H](C)C(=O)N[C@@H](CCCNC(=N)N)C(N)=O	IC50 [6]: 0.04 µM; IC50 [7]: 0.17 µM
0.64 µM	6.65 µM	Cc1c(F)cccc1CN1CCCC(Cc2nc(-c3ccc(NC(=S)NCc4ccccc4)cc3)no2)C1 (stereo unspecified)	inhibition [3]: Active
1.07 µM	10.2 µM	Cc1c(F)cccc1CN1CCCC(Cc2nc(-c3ccc(NC(=O)NCc4ccccc4)cc3)no2)C1 (stereo unspecified)	
0.21 µM	20.1 µM	Cc1c(F)cccc1CN1CCCC(Cc2nc(-c3ccc(NC(=O)Nc4ccccc4)cc3)no2)C1 (stereo unspecified)	
0.62 µM	25 µM	COc1ccc(NC(=O)Nc2ccc(-c3noc(CC4CCCN(Cc5cccc(F)c5C)C4)n3)cc2)cc1 (stereo unspecified)	
0.9 µM	6.2 µM	Cc1c(F)cccc1CN1CCCC(Cc2nc(-c3ccc(NC(=S)Nc4ccccc4)cc3)no2)C1 (stereo unspecified)	

Compound	IC50 [1]	IC50 [2]	also measured
Cc1cc(C)nc(SCC(=O)Nc2ncc(Cc3cccc(OCc4cn(Cc5ccc(OCCN6CCOCC6)cc5)nn4)c3)s2)n1		2.4 µM	inhibition [3]: Active; inhibition (PC-3M-luc): Active
